Assay results from patent US12404289B2 (Gilead Sciences, Inc., priority 2020, dated 2025).
Where two headings read alike, the source gives them in different places.

Tests used:
Assay type in all cases: cell-based
[1] = tested on: Respiratory syncytial virus (RSV) strain A2; assay: RSV antiviral assay (HEp-2, 96 well)
SARS-CoV-2 = SARS-CoV-2 antiviral assay (A549-hACE2, Nano luciferase); details: A549-hACE2 cells, SARS-CoV2-Nano, MOI 0.025, 48 h, Table 4, read-out: EC50 SARS CoV2
[2] = tested on: Respiratory syncytial virus (RSV) strain A2; assay: Hep-2 RSV2 384-well assay (EC50-HEP2-384); details: HEp-2 cells, RSV A2, MOI=4, 4 days
[3] = tested on: Respiratory syncytial virus recombinant with luciferase (RSV-Luc5); assay: microbe, parasite or virus in culture
[4] = tested on: Recombinant respiratory syncytial virus expressing the firefly luciferase protein (RSV-Fluc); assay: microbe, parasite or virus in culture; details: Table 4
[5] = CC50 assay (cytopathology in HEp-2 cells); details: human, HEp-2 cells, 4 days, CellTiter-Glo, read-out: RSV CC50
Experimental: The cytopathology of compounds in HEp-2 cells is determined in the following manner. HEp-2 cells are suspended in DMEM+GlutaMAX (supplemented with 10% FBS and 1% Penicillin/Streptomycin) and seeded into 96 well plates (3×10^3/well). After a 4-hour incubation at 37° C.+5% CO2, three-fold serial dilutions of compounds are added to each well using an HP D300e digital dispenser. The cells are then incubated for 4 days at 37° C. and 5% CO2. The final volume in each well is 200 μL. Untreated wells are included as controls for 100% cell viability, while compounds treated with 5 uM puromycin are included as controls for 0% viability. Following the incubation, 100 μL of culture supernatant is removed from each well and replaced with 100 μL of CellTiter-Glo reagent (Promega, Madison, WI, Cat #G7573). The plates are then rocked for 2 minutes followed by a 10-minute incubation at 25° C. Compound-induced cytopathic effect is then assessed by measuring luminescence signal using and Envision plate reader. Values are normalized to the untreated DMSO and puromycin-treated controls (as 100% and 0% viability, respectively) and data is fit using non-linear regression analysis using XLfit4. The CC50 value for each compound is then determined as the concentration reducing cell viability by 50%.

[6] = read-out: EC50 RSV HEP2 96, HEp-2 cells, RSV A2, MOI=4, 4 days, 96 well, Table 3
[7] = human respiratory syncytial virus, HEp-2, 96 h, Table 3
[8] = human respiratory syncytial virus, HEp-2, 72 h, read-out: EC50 RSVFluc-Hep2 384, HEp-2 cells, RSV-Luc5, MOI=0.5, 3 days, 384 well, Table 3
[9] = human respiratory syncytial virus, NHBE, 72 h, read-out: EC50 RSVFluc NHBE 96, NHBE cells, RSV-Fluc, MOI of 0.1, three days, 96 well
[10] = human respiratory syncytial virus, HEp-2, 96 h, read-out: EC50-RSV-HEP-2-96, HEp-2 cells, RSV A2, MOI=4, 4 days, 96 well, CellTiter-Glo, Table 1
[11] = human respiratory syncytial virus, HEp-2, 96 h, read-out: EC50-RSV-HEP-2-96, HEp-2 cells, RSV A2, MOI=4, 4 days, 96 well, Table 2
[12] = read-out: EC50 RSVFluc NHBE 96, NHBE cells, RSV-Fluc, MOI of 0.1, three days, 96 well

SMILES: CCC(CC)COC(=O)[C@H](C)NP(=O)(OC[C@H]1O[C@@](C#N)(c2ccc3c(N)ncnn23)[C@H](OC(C)=O)[C@@H]1OC(C)=O)Oc1cccc2ccccc12 (single isomer, unassigned) [Example 78b]
- EC50 [1, 6]: 21 nM
- EC50 (SARS-CoV-2): 20 nM
- EC50 [2, 7]: 75.6 nM
- EC50 [3, 8]: 33.8 nM
- EC50 [4, 9]: 5.67 nM

SMILES: CCC(CC)COC(=O)[C@H](C)NP(=O)(OC[C@H]1O[C@@](C#N)(c2ccc3c(N)ncnn23)[C@H](OC(=O)C(C)C)[C@@H]1OC(=O)C(C)C)Oc1c(C)cccc1C (stereo partly drawn) [Example 20, (2R,3R,4R,5R)-2-(4-aminopyrrolo[2,1-f][1,2,4]triazin-7-yl)-2-cyano-5-((((2,6-dimethylphenoxy)(((S)-1-(2-ethylbutoxy)-1-oxopropan-2-yl)amino)phosphoryl)oxy)methyl)tetrahydrofuran-3,4-diyl bis(2-methylpropanoate)]
- EC50 [1, 10]: 444 nM
- CC50 at 4 days ([5]; Table 1): 5180 nM

SMILES: COC(=O)[C@H](C)N[P@](=O)(OC[C@H]1O[C@@](C#N)(c2ccc3c(N)ncnn23)[C@H](O)[C@@H]1O)Oc1ccccc1
- EC50 [1, 11]: 144 nM
- CC50 at 4 days ([5]; Table 2): 48500 nM

SMILES: CCC(=O)O[C@H]1[C@@H](OC(=O)CC)[C@](C#N)(c2ccc3c(N)ncnn23)O[C@@H]1CO[P@@](=O)(N[C@@H](C)C(=O)OC)Oc1ccccc1 [Example 5, (2R,3R,4R,5R)-2-(4-aminopyrrolo[2,1-f][1,2,4]triazin-7-yl)-2-cyano-5-((((S)—(((S)-1-methoxy-1-oxopropan-2-yl)amino)(phenoxy)phosphoryl)oxy)methyl) tetrahydrofuran-3,4-diyl Dipropionate]
- EC50 [1, 10]: 109 nM
- CC50 at 4 days ([5]; Table 1): 9540 nM

SMILES: COC(=O)[C@H](C)N[P@](=O)(OC[C@H]1O[C@@](C#N)(c2ccc3c(N)ncnn23)[C@H](OC(C)=O)[C@@H]1OC(C)=O)Oc1ccccc1 [Example 6, (2R,3R,4R,5R)-2-(4-aminopyrrolo[2,1-f][1,2,4]triazin-7-yl)-2-cyano-5-((((S)—(((S)-1-methoxy-1-oxopropan-2-yl)amino)(phenoxy)phosphoryl)oxy)methyl) tetrahydrofuran-3,4-diyl Diacetate]
- EC50 [1, 10]: 193 nM
- CC50 at 4 days ([5]; Table 1): 26400 nM

SMILES: CC(C)OC(=O)[C@H](C)N[P@](=O)(OC[C@H]1O[C@@](C#N)(c2ccc3c(N)ncnn23)[C@H](O)[C@@H]1O)Oc1ccccc1
- EC50 [1, 11]: 364 nM
- CC50 at 4 days ([5]; Table 2): > 9600 nM

SMILES: CCC(CC)COC(=O)[C@H](C)NP(=O)(OC[C@H]1O[C@@](C#N)(c2ccc3c(N)ncnn23)[C@H](OC(=O)C(C)C)[C@@H]1OC(=O)C(C)C)Oc1cc(C)ccc1C(C)C (stereo partly drawn) [Example 27, (2R,3R,4R,5R)-2-(4-Aminopyrrolo[2,1-f][1,2,4]triazin-7-yl)-2-cyano-5-((((((S)-1-(2-ethylbutoxy)-1-oxopropan-2-yl)amino)(2-isopropyl-5-methylphenoxy)phosphoryl)oxy)methyl)tetrahydrofuran-3,4-diyl bis(2-methylpropanoate)]
- EC50 [1, 10]: 958 nM
- CC50 at 4 days ([5]; Table 1): 5860 nM

SMILES: CCOCCOCCOC(=O)[C@H](C)NP(=O)(OC[C@H]1O[C@@](C#N)(c2ccc3c(N)ncnn23)[C@H](O)[C@@H]1O)Oc1ccccc1 (stereo partly drawn) [Example 22, 2-(2-Ethoxyethoxy)ethyl ((((2R,3S,4R,5R)-5-(4-aminopyrrolo[2,1-f][1,2,4]triazin-7-yl)-5-cyano-3,4-dihydroxytetrahydrofuran-2-yl)methoxy)(phenoxy)phosphoryl)-L-alaninate]
- EC50 [1, 10]: > 4720 nM
- CC50 at 4 days ([5]; Table 1): > 50000 nM

SMILES: CC(=O)O[C@H]1[C@@H](OC(C)=O)[C@](C#N)(c2ccc3c(N)ncnn23)O[C@@H]1COP(=O)(N[C@@H](C)C(=O)OC1CC2(CCC2)C1)Oc1cccc2ccccc12 (single isomer, unassigned) [Example 83b]
- EC50 [1, 6]: 7.32 nM
- EC50 (SARS-CoV-2): 32.8 nM
- EC50 [2, 7]: 27.9 nM
- EC50 ([3]; read-out: EC50 RSVFluc-Hep2 384, HEp-2 cells, RSV-Luc5, MOI=0.5, 3 days, 384 well, Table 3): 20.4 nM
- EC50 [4, 12]: 7.12 nM

SMILES: CCOCCOCCOC(=O)[C@H](C)NP(=O)(OC[C@H]1O[C@@](C#N)(c2ccc3c(N)ncnn23)[C@H](OC(=O)C(C)C)[C@@H]1OC(=O)C(C)C)Oc1ccccc1 (stereo partly drawn) [Example 23, (2R,3R,4R,5R)-2-(4-Aminopyrrolo[2,1-f][1,2,4]triazin-7-yl)-2-cyano-5-((((((S)-1-(2-(2-ethoxyethoxy)ethoxy)-1-oxopropan-2-yl)amino)(phenoxy)phosphoryl)oxy)methyl)tetrahydrofuran-3,4-diyl bis(2-methylpropanoate)]
- EC50 [1, 10]: 75.9 nM
- CC50 at 4 days ([5]; Table 1): 5640 nM

SMILES: C[C@H](NP(=O)(OC[C@H]1O[C@@](C#N)(c2ccc3c(N)ncnn23)[C@H](O)[C@@H]1O)Oc1ccccc1)C(=O)OC1CCC1 (some centres unmarked)
- EC50 [1, 11]: 75.1 nM
- CC50 at 4 days ([5]; Table 2): 34200 nM

SMILES: CCOC(=O)[C@H](C)N[P@](=O)(OC[C@H]1O[C@@](C#N)(c2ccc3c(N)ncnn23)[C@H](OC(=O)C(C)C)[C@@H]1OC(=O)C(C)C)Oc1ccccc1 [Example 10, (2R,3R,4R,5R)-2-(4-aminopyrrolo[2,1-f][1,2,4]triazin-7-yl)-2-cyano-5-((((((S)-1-ethoxy-1-oxopropan-2-yl)amino)(phenoxy)phosphoryl)oxy)methyl)tetrahydrofuran-3,4-diyl bis(2-methylpropanoate)]
- EC50 [1, 10]: 52.9 nM
- CC50 at 4 days ([5]; Table 1): 10300 nM

SMILES: CCC(=O)O[C@H]1[C@@H](OC(=O)CC)[C@](C#N)(c2ccc3c(N)ncnn23)O[C@@H]1CO[P@@](=O)(N[C@@H](C)C(=O)OC(C)C)Oc1ccccc1 [Example 8, (2R,3R,4R,5R)-2-(4-aminopyrrolo[2,1-f][1,2,4]triazin-7-yl)-2-cyano-5-((((S)—(((S)-1-isopropoxy-1-oxopropan-2-yl)amino)(phenoxy)phosphoryl)oxy)methyl) tetrahydrofuran-3,4-diyl Dipropionate]
- EC50 [1, 10]: 156 nM
- CC50 at 4 days ([5]; Table 1): > 40000 nM

SMILES: CC(=O)O[C@H]1[C@@H](OC(C)=O)[C@](C#N)(c2ccc3c(N)ncnn23)O[C@@H]1CO[P@@](=O)(N[C@@H](C)C(=O)OC(C)C)Oc1ccccc1 [Example 9, (2R,3R,4R,5R)-2-(4-aminopyrrolo[2,1-f][1,2,4]triazin-7-yl)-2-cyano-5-((((S)—(((S)-1-isopropoxy-1-oxopropan-2-yl)amino)(phenoxy)phosphoryl)oxy)methyl) tetrahydrofuran-3,4-diyl Diacetate]
- EC50 [1, 10]: 228 nM
- CC50 at 4 days ([5]; Table 1): > 50000 nM

SMILES: CCC(CC)COC(=O)[C@H](C)NP(=O)(OC[C@H]1O[C@@](C#N)(c2ccc3c(N)ncnn23)[C@H](O)[C@@H]1O)Oc1c(C)cccc1C (stereo partly drawn) [Example 19, 2-Ethylbutyl ((((2R,3S,4R,5R)-5-(4-aminopyrrolo[2,1-f][1,2,4]triazin-7-yl)-5-cyano-3,4-dihydroxytetrahydrofuran-2-yl)methoxy)(2,6-dimethylphenoxy)phosphoryl)-L-alaninate]
- EC50 [1, 10]: 687 nM
- CC50 at 4 days ([5]; Table 1): 26500 nM

SMILES: CC(=O)O[C@H]1[C@@H](OC(C)=O)[C@](C#N)(c2ccc3c(N)ncnn23)O[C@@H]1COP(=O)(N[C@@H](C)C(=O)OC1CC(C)(C)C1)Oc1ccc(C(C)(C)C)cc1 (stereo partly drawn) [Example 96, (2R,3R,4R,5R)-2-(4-aminopyrrolo[2,1-f][1,2,4]triazin-7-yl)-5-((((4-(tert-butyl)phenoxy)(((S)-1-(3,3-dimethylcyclobutoxy)-1-oxopropan-2-yl)amino)phosphoryl)oxy)methyl)-2-cyanotetrahydrofuran-3,4-diyl Diacetate]
- EC50 (SARS-CoV-2; Severe acute respiratory syndrome coronavirus 2, 48 h): 95.9 nM
- EC50 [2, 7]: 39.9 nM
- EC50 [3, 8]: 30.2 nM
- EC50 [4, 9]: 5.48 nM

SMILES: CCC(CC)COC(=O)[C@H](C)NP(=O)(OC[C@H]1O[C@@](C#N)(c2ccc3c(N)ncnn23)[C@H](O)[C@@H]1O)Oc1ccc(C(C)(C)C)cc1 (single isomer, unassigned) [Example 13b]
- EC50 (SARS-CoV-2): 174 nM
- EC50 ([2]; Table 1): 33.4 nM
- EC50 ([3]; read-out: EC50 RSVFluc-Hep2 384, HEp-2 cells, RSV-Luc5, MOI=0.5, 3 days, 384 well, One-Glo, Table 1): 26.7 nM
- EC50 [4, 12]: 6.86 nM
